Measured values reported in article PMC9232112 (Science Advances, 2022).

Tests used:
recRSV-mKate = experiment: microbe, parasite or virus in culture; type: cell-based; conditions: human respiratory syncytial virus, read-out: EC50, apical RSV shedding
measles virus polymerase = conditions: equivalent measles virus RdRP assay; cited from earlier work

Row | Compound | EC50 (recRSV-mKate) [nM] | phosphodiester bond formation (measles virus polymerase)
1 | O=c1nc(NO)ccn1[C@@H]1O[C@H](CO)[C@@H](O)[C@H]1O [NHC, N^4-hydroxycytidine] | 50 | 
2 | Cn1nc(C(F)(F)F)cc1C(=O)Nc1ccc(S(=O)(=O)N2CCCC[C@H]2CCN2CCOCC2)cc1 [ERDRP-0519] |  | completely blocks all phosphodiesterbond formation
